Laboratory results as given in ChEMBL document CHEMBL5678812, “Inhibitors of p21-activated kinases (PAKs)” (J Med Chem, 2015).
Values belong to the compound of their own block, whether it stands above or below them.

How the values were obtained:
[1] = target: Ephrin type-B receptor 1 (Homo sapiens) (UniProt P54762); assay: Inhibition of EphB1 (unknown origin) at 0.1 uM relative to control
Homo sapiens [2] = organism: Homo sapiens; assay: Inhibition of KHS1 (unknown origin) at 0.1 uM relative to control
TAK1/TAB1 (Homo sapiens) = TAK1/TAB1 (Homo sapiens) (UniProt Q15750+O43318); assay: Inhibition of TAK1-TAB1 (unknown origin) at 0.1 uM relative to control; assay type: protein-complex assay
[3] = target: Angiopoietin-1 receptor (Homo sapiens) (UniProt Q02763); assay: Inhibition of Tie2 (unknown origin) at 0.1 uM relative to control
[4] = target: Serine/threonine-protein kinase WNK2 (Homo sapiens) (UniProt Q9Y3S1); assay: Inhibition of WNK2 (unknown origin) at 0.1 uM relative to control
Homo sapiens [5] = organism: Homo sapiens; assay: Inhibition of CDK2/cyclinA (unknown origin) at 0.1 uM relative to control
[6] = target: Casein kinase I isoform delta (Homo sapiens) (UniProt P48730); assay: Inhibition of CK1delta (unknown origin) at 0.1 uM relative to control
[7] = target: Casein kinase I isoform gamma-1 (Homo sapiens) (UniProt Q9HCP0); assay: Inhibition of CK1gamma1 (unknown origin) at 0.1 uM relative to control
[8] = target: Dual specificity protein kinase CLK1 (Homo sapiens) (UniProt P49759); assay: Inhibition of CLK1 (unknown origin) at 0.1 uM relative to control
[9] = target: Dual specificity protein kinase CLK3 (Homo sapiens) (UniProt P49761); assay: Inhibition of CLK3 (unknown origin) at 0.1 uM relative to control
[10] = target: DNA-PK/Ku70/Ku85 (Homo sapiens) (UniProt P78527+P12956+P13010); assay: Inhibition of DNA-PK (unknown origin) at 0.1 uM relative to control; assay type: protein-complex assay
[11] = target: Dual specificity tyrosine-phosphorylation-regulated kinase 1B (Homo sapiens) (UniProt Q9Y463); assay: Inhibition of DYRK1B (unknown origin) at 0.1 uM relative to control
Dual specificity tyrosine-phosphorylation-regulated kinase 1B (Homo sapiens), sequence (Q9Y463 whole entry, looked up): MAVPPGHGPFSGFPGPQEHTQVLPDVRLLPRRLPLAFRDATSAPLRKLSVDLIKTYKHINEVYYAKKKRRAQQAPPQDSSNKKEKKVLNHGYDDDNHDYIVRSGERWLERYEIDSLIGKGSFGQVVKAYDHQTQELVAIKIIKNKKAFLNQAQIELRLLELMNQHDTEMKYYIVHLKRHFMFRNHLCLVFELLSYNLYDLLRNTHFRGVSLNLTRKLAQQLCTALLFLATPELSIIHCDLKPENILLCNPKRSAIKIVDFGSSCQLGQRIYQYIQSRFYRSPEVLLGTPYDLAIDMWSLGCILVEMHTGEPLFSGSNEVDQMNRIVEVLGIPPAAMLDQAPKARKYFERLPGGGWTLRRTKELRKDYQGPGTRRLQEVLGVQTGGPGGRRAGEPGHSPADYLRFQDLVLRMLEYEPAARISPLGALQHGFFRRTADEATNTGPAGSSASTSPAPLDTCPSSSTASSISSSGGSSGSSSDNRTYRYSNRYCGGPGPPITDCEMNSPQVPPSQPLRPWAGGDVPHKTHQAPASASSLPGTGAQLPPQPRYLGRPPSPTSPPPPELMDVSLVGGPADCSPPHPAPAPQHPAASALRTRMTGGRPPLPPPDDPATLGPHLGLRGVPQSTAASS

[12] = target: Ephrin type-B receptor 3 (Homo sapiens) (UniProt P54753); assay: Inhibition of EphB3 (unknown origin) at 0.1 uM relative to control
[13] = target: Vascular endothelial growth factor receptor 3 (Homo sapiens) (UniProt P35916); assay: Inhibition of Flt4 (unknown origin) at 0.1 uM relative to control
[14] = target: Tyrosine-protein kinase FRK (Homo sapiens) (UniProt P42685); assay: Inhibition of Frk (unknown origin) at 0.1 uM relative to control
[15] = target: Beta-adrenergic receptor kinase 1 (Homo sapiens) (UniProt P25098); assay: Inhibition of GRK2 (unknown origin) at 0.1 uM relative to control
Beta-adrenergic receptor kinase 1 (Homo sapiens), sequence (P25098 whole entry): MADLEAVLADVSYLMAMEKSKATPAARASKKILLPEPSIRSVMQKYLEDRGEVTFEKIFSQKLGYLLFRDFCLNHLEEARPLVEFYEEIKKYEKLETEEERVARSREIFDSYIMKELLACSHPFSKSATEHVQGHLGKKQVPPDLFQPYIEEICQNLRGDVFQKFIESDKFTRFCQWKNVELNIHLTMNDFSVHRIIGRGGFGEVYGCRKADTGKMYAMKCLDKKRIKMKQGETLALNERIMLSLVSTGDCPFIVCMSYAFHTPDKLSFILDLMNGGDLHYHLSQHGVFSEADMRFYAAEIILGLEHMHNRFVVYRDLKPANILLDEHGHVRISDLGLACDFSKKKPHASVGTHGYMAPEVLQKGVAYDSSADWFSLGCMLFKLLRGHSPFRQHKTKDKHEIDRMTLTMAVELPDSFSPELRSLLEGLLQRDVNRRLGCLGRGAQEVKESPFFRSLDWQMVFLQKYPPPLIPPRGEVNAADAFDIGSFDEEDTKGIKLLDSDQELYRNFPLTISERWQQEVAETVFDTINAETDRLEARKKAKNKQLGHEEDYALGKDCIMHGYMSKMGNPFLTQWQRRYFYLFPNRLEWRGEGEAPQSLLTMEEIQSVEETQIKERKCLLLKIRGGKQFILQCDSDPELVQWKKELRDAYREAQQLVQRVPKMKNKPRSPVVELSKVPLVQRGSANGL

[16] = target: G protein-coupled receptor kinase 5 (Homo sapiens) (UniProt P34947); assay: Inhibition of GRK5 (unknown origin) at 0.1 uM relative to control
[17] = target: Homeodomain-interacting protein kinase 1 (Homo sapiens) (UniProt Q86Z02); assay: Inhibition of HIPK1 (unknown origin) at 0.1 uM relative to control
[18] = target: Megakaryocyte-associated tyrosine-protein kinase (Homo sapiens) (UniProt P42679); assay: Inhibition of Hyl (unknown origin) at 0.1 uM relative to control
[19] = target: Inhibitor of nuclear factor kappa-B kinase subunit epsilon (Homo sapiens) (UniProt Q14164); assay: Inhibition of IKKepsilon (unknown origin) at 0.1 uM relative to control
[20] = target: Tyrosine-protein kinase JAK1 (Homo sapiens) (UniProt P23458); assay: Inhibition of JAK1 (unknown origin) at 0.1 uM relative to control
Tyrosine-protein kinase JAK1 (Homo sapiens), sequence (P23458 whole entry): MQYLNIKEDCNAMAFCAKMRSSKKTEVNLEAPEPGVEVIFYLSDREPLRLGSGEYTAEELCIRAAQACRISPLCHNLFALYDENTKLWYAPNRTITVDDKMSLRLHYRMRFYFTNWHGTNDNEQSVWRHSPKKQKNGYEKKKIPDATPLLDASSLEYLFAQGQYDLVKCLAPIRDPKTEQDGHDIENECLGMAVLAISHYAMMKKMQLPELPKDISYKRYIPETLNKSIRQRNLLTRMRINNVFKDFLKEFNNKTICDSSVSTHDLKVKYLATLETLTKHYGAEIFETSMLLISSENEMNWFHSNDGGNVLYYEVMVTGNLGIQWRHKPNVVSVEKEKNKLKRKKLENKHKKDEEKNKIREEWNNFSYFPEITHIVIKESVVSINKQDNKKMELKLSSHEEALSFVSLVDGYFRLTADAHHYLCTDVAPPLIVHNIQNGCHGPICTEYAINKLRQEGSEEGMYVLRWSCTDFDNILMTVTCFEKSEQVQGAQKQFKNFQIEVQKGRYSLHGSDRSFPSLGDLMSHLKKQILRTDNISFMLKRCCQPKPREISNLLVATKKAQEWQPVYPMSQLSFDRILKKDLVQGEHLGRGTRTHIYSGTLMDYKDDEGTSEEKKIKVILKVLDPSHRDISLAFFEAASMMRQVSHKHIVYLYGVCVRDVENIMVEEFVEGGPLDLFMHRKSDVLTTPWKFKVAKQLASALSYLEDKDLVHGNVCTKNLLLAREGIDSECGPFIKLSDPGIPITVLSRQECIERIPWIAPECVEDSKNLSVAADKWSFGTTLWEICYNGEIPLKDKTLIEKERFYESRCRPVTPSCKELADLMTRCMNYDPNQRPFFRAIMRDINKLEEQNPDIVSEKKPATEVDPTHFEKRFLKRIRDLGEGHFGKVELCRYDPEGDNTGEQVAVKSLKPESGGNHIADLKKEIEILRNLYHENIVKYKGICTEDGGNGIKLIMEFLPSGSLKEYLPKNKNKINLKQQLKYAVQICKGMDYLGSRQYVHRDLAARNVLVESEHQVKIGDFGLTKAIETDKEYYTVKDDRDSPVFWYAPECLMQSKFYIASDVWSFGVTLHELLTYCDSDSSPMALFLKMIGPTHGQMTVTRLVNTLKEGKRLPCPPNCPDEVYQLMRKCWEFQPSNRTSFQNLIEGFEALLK

[21] = target: Tyrosine-protein kinase Lck (Homo sapiens) (UniProt P06239); assay: Inhibition of Lck (unknown origin) at 0.1 uM relative to control
Tyrosine-protein kinase Lck (Homo sapiens), sequence (P06239 2-509 limits assumed): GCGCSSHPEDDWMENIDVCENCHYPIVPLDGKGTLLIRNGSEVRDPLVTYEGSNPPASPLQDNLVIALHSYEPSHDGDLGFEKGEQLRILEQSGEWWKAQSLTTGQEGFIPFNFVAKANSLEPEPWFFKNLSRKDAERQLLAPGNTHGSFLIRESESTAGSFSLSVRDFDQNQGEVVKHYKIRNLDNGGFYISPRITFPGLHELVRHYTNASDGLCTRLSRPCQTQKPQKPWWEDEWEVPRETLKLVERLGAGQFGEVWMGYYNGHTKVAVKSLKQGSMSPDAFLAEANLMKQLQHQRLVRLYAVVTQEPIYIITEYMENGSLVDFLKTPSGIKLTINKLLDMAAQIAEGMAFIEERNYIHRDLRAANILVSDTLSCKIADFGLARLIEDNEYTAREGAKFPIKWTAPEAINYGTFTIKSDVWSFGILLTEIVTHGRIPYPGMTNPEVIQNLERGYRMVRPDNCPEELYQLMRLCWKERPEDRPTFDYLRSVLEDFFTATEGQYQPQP

[22] = target: Tyrosine-protein kinase Lyn (Homo sapiens) (UniProt P07948); assay: Inhibition of Lyn (unknown origin) at 0.1 uM relative to control
[23] = target: Ribosomal protein S6 kinase alpha-5 (Homo sapiens) (UniProt O75582); assay: Inhibition of MSK1 (unknown origin) at 0.1 uM relative to control
[24] = target: Serine/threonine-protein kinase 3 (Homo sapiens) (UniProt Q13188); assay: Inhibition of MST2 (unknown origin) at 0.1 uM relative to control
[25] = target: Serine/threonine-protein kinase Nek4 (Homo sapiens) (UniProt P51957); assay: Inhibition of NEK4 (unknown origin) at 0.1 uM relative to control
[26] = target: Serine/threonine-protein kinase Nek6 (Homo sapiens) (UniProt Q9HC98); assay: Inhibition of NEK6 (unknown origin) at 0.1 uM relative to control
[27] = target: PAS domain-containing serine/threonine-protein kinase (Homo sapiens) (UniProt Q96RG2); assay: Inhibition of PASK (unknown origin) at 0.1 uM relative to control
[28] = target: Serine/threonine-protein kinase pim-2 (Homo sapiens) (UniProt Q9P1W9); assay: Inhibition of PIM2 (unknown origin) at 0.1 uM relative to control
Serine/threonine-protein kinase pim-2 (Homo sapiens), sequence (Q9P1W9 whole entry, looked up): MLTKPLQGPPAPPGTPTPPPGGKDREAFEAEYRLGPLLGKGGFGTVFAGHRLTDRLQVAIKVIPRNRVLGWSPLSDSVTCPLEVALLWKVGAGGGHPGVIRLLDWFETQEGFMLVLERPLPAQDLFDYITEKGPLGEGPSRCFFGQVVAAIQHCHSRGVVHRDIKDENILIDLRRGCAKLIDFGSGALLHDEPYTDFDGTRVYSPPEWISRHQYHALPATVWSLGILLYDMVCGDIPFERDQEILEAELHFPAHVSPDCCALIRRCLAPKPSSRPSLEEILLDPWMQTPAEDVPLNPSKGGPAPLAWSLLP

[29] = target: Protein kinase C epsilon type (Homo sapiens) (UniProt Q02156); assay: Inhibition of PKCepsilon (unknown origin) at 0.1 uM relative to control
[30] = target: Protein kinase C zeta type (Homo sapiens) (UniProt Q05513); assay: Inhibition of PKCzeta (unknown origin) at 0.1 uM relative to control
Protein kinase C zeta type (Homo sapiens), sequence (Q05513 whole entry): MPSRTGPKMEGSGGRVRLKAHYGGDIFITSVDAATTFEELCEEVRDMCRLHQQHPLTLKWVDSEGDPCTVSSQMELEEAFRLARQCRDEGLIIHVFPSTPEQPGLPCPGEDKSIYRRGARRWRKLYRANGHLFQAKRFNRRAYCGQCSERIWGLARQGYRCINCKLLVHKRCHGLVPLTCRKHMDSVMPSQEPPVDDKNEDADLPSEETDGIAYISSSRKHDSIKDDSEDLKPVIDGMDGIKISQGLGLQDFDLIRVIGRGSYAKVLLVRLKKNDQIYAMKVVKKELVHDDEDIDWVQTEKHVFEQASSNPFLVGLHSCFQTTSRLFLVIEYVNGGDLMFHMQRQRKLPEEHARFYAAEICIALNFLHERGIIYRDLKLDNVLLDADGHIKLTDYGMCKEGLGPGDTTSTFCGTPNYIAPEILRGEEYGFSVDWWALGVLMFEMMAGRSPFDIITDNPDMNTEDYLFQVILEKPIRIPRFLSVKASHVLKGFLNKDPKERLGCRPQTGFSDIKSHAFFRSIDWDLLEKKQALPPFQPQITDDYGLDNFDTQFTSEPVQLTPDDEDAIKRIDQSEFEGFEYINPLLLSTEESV

[31] = target: Serine/threonine-protein kinase PLK2 (Homo sapiens) (UniProt Q9NYY3); assay: Inhibition of PLK2 (unknown origin) at 0.1 uM relative to control
[32] = target: cAMP-dependent protein kinase catalytic subunit PRKX (Homo sapiens) (UniProt P51817); assay: Inhibition of PrKX (unknown origin) at 0.1 uM relative to control
cAMP-dependent protein kinase catalytic subunit PRKX (Homo sapiens), sequence (P51817 whole entry): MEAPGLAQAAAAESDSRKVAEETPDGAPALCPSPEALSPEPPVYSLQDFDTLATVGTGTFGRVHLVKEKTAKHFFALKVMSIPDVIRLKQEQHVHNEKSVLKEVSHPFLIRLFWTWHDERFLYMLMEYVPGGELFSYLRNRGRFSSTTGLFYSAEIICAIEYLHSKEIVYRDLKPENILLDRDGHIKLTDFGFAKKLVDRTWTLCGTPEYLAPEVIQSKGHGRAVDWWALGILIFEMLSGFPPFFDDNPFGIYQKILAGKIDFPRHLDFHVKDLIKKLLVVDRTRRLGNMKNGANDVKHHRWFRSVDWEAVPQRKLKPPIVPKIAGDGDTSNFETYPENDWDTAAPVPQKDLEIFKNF

[33] = target: Proto-oncogene tyrosine-protein kinase ROS (Homo sapiens) (UniProt P08922); assay: Inhibition of Ros (unknown origin) at 0.1 uM relative to control
[34] = target: Non-receptor tyrosine-protein kinase TYK2 (Homo sapiens) (UniProt P29597); assay: Inhibition of TYK2 (unknown origin) at 0.1 uM relative to control
[35] = target: Eukaryotic elongation factor 2 kinase (Homo sapiens) (UniProt O00418); assay: Inhibition of eEF-2K (unknown origin) at 0.1 uM relative to control
Eukaryotic elongation factor 2 kinase (Homo sapiens), sequence (O00418 whole entry): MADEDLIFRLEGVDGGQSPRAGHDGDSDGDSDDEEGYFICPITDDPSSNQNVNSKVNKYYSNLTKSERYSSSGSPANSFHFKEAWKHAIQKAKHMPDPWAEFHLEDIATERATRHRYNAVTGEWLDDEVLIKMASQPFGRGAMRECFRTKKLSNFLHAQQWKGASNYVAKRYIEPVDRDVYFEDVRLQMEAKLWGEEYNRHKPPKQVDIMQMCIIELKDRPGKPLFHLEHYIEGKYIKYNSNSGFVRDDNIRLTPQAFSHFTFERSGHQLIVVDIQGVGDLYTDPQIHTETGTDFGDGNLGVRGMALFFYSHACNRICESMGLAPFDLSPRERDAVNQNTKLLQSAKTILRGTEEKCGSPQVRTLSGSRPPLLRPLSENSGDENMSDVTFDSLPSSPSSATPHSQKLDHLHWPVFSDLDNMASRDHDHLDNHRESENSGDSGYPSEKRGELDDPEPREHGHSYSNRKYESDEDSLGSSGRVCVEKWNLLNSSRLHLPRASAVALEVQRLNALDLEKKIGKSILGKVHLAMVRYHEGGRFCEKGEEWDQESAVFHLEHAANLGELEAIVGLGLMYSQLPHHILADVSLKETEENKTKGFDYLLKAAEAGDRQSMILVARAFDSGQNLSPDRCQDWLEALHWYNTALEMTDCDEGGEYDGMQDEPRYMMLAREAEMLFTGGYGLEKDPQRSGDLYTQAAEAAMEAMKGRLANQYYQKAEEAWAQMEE

[36] = target: Serine/threonine-protein kinase mTOR (Homo sapiens) (UniProt P42345); assay: Inhibition of mTOR (unknown origin) at 0.1 uM relative to control
[37] = target: Mitogen-activated protein kinase 12 (Homo sapiens) (UniProt P53778); assay: Inhibition of p38gamma (unknown origin) at 0.1 uM relative to control

inhibition [1]: 93%
inhibition (Homo sapiens [2]): 105%
inhibition (TAK1/TAB1 (Homo sapiens)): 27.9%
inhibition [3]: 24.8%
inhibition [4]: 0%
Compound: CN1CCc2cc(-c3cnc4[nH]cc(C(=O)c5ccccc5Cl)c4c3)ccc2C1

inhibition (Homo sapiens [5]): 1.9%
inhibition [6]: 6.6%
inhibition [7]: 1.9%
inhibition [8]: 11.3%
inhibition [9]: 8.9%
inhibition [10]: -6.3%
inhibition [11]: 0.5%
inhibition [12]: 5.5%
inhibition [13]: 1%
inhibition [14]: 13.1%
inhibition [15]: -9.6%
inhibition [16]: 2.5%
inhibition [17]: 1.7%
inhibition [18]: 6.6%
inhibition [19]: 6%
inhibition [20]: 0.1%
inhibition [21]: 7.6%
inhibition [22]: -2.7%
inhibition [23]: 4.2%
inhibition [24]: 8.8%
inhibition [25]: 2%
inhibition [26]: 9.9%
inhibition [27]: 15.9%
inhibition [28]: 8.4%
inhibition [29]: 8.3%
inhibition [30]: 22.8%
inhibition [31]: 10.8%
inhibition [32]: 5.3%
inhibition [33]: 6.8%
inhibition [34]: 3.3%
inhibition [35]: 4.3%
inhibition [36]: -2.4%
inhibition [37]: 8.1%
Compound: COCCNc1nc2ccc(C#CC3(O)CCCCC3)cc2n1-c1ccnc(N)n1
